Measured values as given in patent publication US11554171B2, “Compounds and methods for the targeted degradation of bromodomain-containing proteins” (Arvinas Operations, Inc., priority 2015, dated 2023).

Tested on: c-myc in 22RV-1 cells
Test: Human c-myc ELISA assay
Format: cell-based
Conditions: Homo sapiens; for Emax: 22Rv1, 18 h, read-out: Degradation of BRD4: Maximum inhibition (%) c-Myc ELISA in 22RV1 cells; for DC50: 22Rv1, read-out: Degradation of BRD4: DC50 (uM) c-Myc ELISA in 22RV1 cells
How it was run: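 c-myc levels measured by ELISA in RIPA lysates of 22RV-1 cells, calibrated with a 333-0 pg/ml standard curve. Lysates came from cells exposed for 18 h to an 8-point, 1:3 dose series starting at 300 nM or 1 μM final in 0.1% DMSO. Suppression potency given as DC50.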

Row | DC50 | SMILES | Emax
1 | 0.01 to 0.1 µM | Cc1ncsc1-c1ccc(CNC(=O)[C@@H]2C[C@@H](O)CN2C(=O)[C@@H](NC(=O)COCCCOc2ccc(-c3ccc(NC(=O)C[C@@H]4N=C(c5ccc(Cl)cc5)c5c(sc(C)c5C)-n5c(C)nnc54)c(F)c3)nc2)C(C)(C)C)cc1 [Example 24] | 87.5%
2 | < 0.01 µM | Cc1ncsc1-c1ccc([C@H](C)NC(=O)[C@@H]2C[C@@H](O)CN2C(=O)[C@H](C(C)C)n2cc(-c3ccnc(N4CC[C@H](NC(=O)C[C@@H]5N=C(c6ccc(Cl)cc6)c6c(sc(C)c6C)-n6c(C)nnc65)C4)c3)cn2)cc1 [Example 264] | 97%
3 | 0.01 to 0.1 µM | Cc1ncsc1-c1ccc(CNC(=O)[C@@H]2C[C@@H](O)CN2C(=O)[C@@H](NC(=O)COCCOc2cccc(NC(=O)C[C@@H]3N=C(c4ccc(Cl)cc4)c4c(sc(C)c4C)-n4c(C)nnc43)c2)C(C)(C)C)cc1 [Example 81] | 99%
4 | 0.1 to 1 µM | Cc1ncsc1-c1ccc(CNC(=O)[C@@H]2C[C@@H](O)CN2C(=O)[C@@H](NC(=O)COCCN2CCC(c3ccc([C@H](C)NC(=O)C[C@@H]4N=C(c5ccc(Cl)cc5)c5c(sc(C)c5C)-n5c(C)nnc54)cc3)CC2)C(C)(C)C)cc1 [Example 52] | 93%
5 | 0.1 to 1 µM | CC(=O)N[C@H](C(=O)N1C[C@H](O)C[C@H]1C(=O)NCc1ccc(-c2scnc2C)cc1OCCOCCCOc1ccc(C2=N[C@@H](CC(=O)Nc3ccccc3)c3nnc(C)n3-c3sc(C)c(C)c32)cc1)C(C)(C)C [Example 181, (2S,4R)-1-[(2S)-2-acetamido-3,3-dimethylbutanoyl]-4-hydroxy-N-{[4-(4-methyl-1,3-thiazol-5-yl)-2-[2-(3-{4-[(9S)-4,5,13-trimethyl-9-[(phenylcarbamoyl)methyl]-3-thia-1,8,11,12-tetraazatricyclo[8.3.0.0^2,^6]trideca-2(6),4,7,10,12-pentaen-7-yl]phenoxy}propoxy)ethoxy]phenyl]methyl}pyrrolidine-2-carboxamide] | 80.5%
6 | 0.01 to 0.1 µM | Cc1ncsc1-c1ccc(CNC(=O)[C@@H]2C[C@@H](O)CN2C(=O)[C@@H](NC(=O)COCCc2cccc(CNC(=O)C[C@@H]3N=C(c4ccc(Cl)cc4)c4c(sc(C)c4C)-n4c(C)nnc43)c2)C(C)(C)C)cc1 [Example 69] | 93.4%
7 | 0.1 to 1 µM | Cc1ncsc1-c1ccc(CNC(=O)[C@@H]2C[C@@H](O)CN2C(=O)[C@H](C(C)C)N2Cc3ccccc3C2=O)c(OCCOCCOCCCCOCCOCCNC(=O)C[C@@H]2N=C(c3ccc(Cl)cc3)c3c(sc(C)c3C)-n3c(C)nnc32)c1 [Example 6] | 100%
8 | > 1 µM | Cc1ncsc1-c1ccc(CNC(=O)[C@@H]2C[C@@H](O)CN2C(=O)[C@@H](NC(=O)CCN2CCC(OCCNC(=O)C[C@@H]3N=C(c4ccc(Cl)cc4)c4c(sc(C)c4C)-n4c(C)nnc43)CC2)C(C)(C)C)cc1 [Example 123] | 19.7%
9 | < 0.01 µM | Cc1ncsc1-c1ccc([C@H](C)NC(=O)[C@@H]2C[C@@H](O)CN2C(=O)[C@@H](NC(=O)c2cc3cc(O[C@H]4C[C@@H](NC(=O)C[C@@H]5N=C(c6ccc(Cl)cc6)c6c(sc(C)c6C)-n6c(C)nnc65)C4)ccc3o2)C(C)C)cc1 [Example 336] | 98%
10 | 0.1 to 1 µM | Cc1ncoc1-c1ccc(CNC(=O)[C@@H]2C[C@@H](O)CN2C(=O)[C@@H](NC(=O)COCCOCCCOc2ccc([C@@H](C)NC(=O)C[C@@H]3N=C(c4ccc(Cl)cc4)c4c(sc(C)c4C)-n4c(C)nnc43)cc2)C(C)(C)C)cc1 [Example 31] | 65%
11 | 0.01 to 0.1 µM | Cc1ncsc1-c1ccc(CNC(=O)[C@@H]2C[C@@H](O)CN2C(=O)[C@@H](NC(=O)COCCOCCOCCNC(=O)C[C@@H]2N=C(c3ccc(Cl)cc3)c3c(sc(C)c3C)-n3c(C)nnc32)C(C)(C)C)cc1 [Example 42, (2S,4R)-1-[(2S)-2-(2-{2-[2-(2-{2-[(9S)-7-(4-chlorophenyl)-4,5,13-trimethyl-3-thia-1,8,11,12-tetraazatricyclo[8.3.0.0^2,^6]trideca-2(6),4,7,10,12-pentaen-9-yl]acetamido}ethoxy)ethoxy]ethoxy}acetamido)-3,3-dimethylbutanoyl]-4-hydroxy-N-{[4-(4-methyl-1,3-thiazol-5-yl)phenyl]methyl}pyrrolidine-2-carboxamide] | 98.6%
12 | < 0.01 µM | Cc1ncsc1-c1ccc([C@H](C)NC(=O)[C@@H]2C[C@@H](O)CN2C(=O)[C@H](C(C)C)n2cc(-c3cccc(O[C@H]4C[C@@H](NC(=O)C[C@@H]5N=C(c6ccc(Cl)cc6)c6c(sc(C)c6C)-n6c(C)nnc65)C4)c3)cn2)cc1 [Example 243] | 95.5%
13 | < 0.01 µM | Cc1ncsc1-c1ccc([C@H](C)NC(=O)[C@@H]2C[C@@H](O)CN2C(=O)[C@@H](NC(=O)CCc2cccc(OCCNC(=O)C[C@@H]3N=C(c4ccc(Cl)cc4)c4c(sc(C)c4C)-n4c(C)nnc43)c2)C(C)(C)C)cc1 [Example 85] | 100%

The next lines start with the compound.

Row | SMILES | DC50 | Emax
14 | Cc1ncsc1-c1ccc([C@H](C)NC(=O)[C@@H]2C[C@@H](O)CN2C(=O)[C@H](C(C)C)n2cc(-c3cnc(O[C@H]4C[C@H](NC(=O)C[C@@H]5N=C(c6ccc(Cl)cc6)c6c(sc(C)c6C)-n6c(C)nnc65)C4)cn3)cn2)cc1 [Example 284] | < 0.01 µM | 93.4%
15 | Cc1ncsc1-c1ccc([C@H](C)NC(=O)[C@@H]2C[C@@H](O)CN2C(=O)[C@@H](NC(=O)c2cc3ccc(OCCNC(=O)C[C@@H]4N=C(c5ccc(Cl)cc5)c5c(sc(C)c5C)-n5c(C)nnc54)cc3o2)C(C)(C)C)cc1 [Example 210, (2S,4R)-1-[(2S)-2-{[6-(2-{2-[(9S)-7-(4-chlorophenyl)-4,5,13-trimethyl-3-thia-1,8,11,12-tetraazatricyclo[8.3.0.0^2,^6]trideca-2(6),4,7,10,12-pentaen-9-yl]acetamido}ethoxy)-1-benzofuran-2-yl]formamido}-3,3-dimethylbutanoyl]-4-hydroxy-N-[(1S)-1-[4-(4-methyl-1,3-thiazol-5-yl)phenyl]ethyl]pyrrolidine-2-carboxamide] | < 0.01 µM | 100%
16 | Cc1ncsc1-c1ccc([C@H](C)NC(=O)[C@@H]2C[C@@H](O)CN2C(=O)[C@@H](NC(=O)C[C@@H]2N=C(c3ccc(Cl)cc3)c3c(sc(C)c3C)-n3c(C)nnc32)C(C)(C)C)cc1 [Example 349] | > 1 µM | 22%
17 | Cc1ncsc1-c1ccc([C@H](C)NC(=O)[C@@H]2C[C@@H](OC(=O)CC(C)(C)N)CN2C(=O)[C@@H](NC(=O)c2cc3cc(O[C@H]4C[C@@H](NC(=O)C[C@@H]5N=C(c6ccc(Cl)cc6)c6c(sc(C)c6C)-n6c(C)nnc65)C4)ccc3o2)C(C)(C)C)cc1 [Example 343] | 0.01 to 0.1 µM | 87%
18 | Cc1ncsc1-c1ccc(CNC(=O)[C@@H]2C[C@@H](O)CN2C(=O)[C@@H](NC(=O)COCCCOCCCOc2ccc(C3(NC(=O)C[C@@H]4N=C(c5ccc(Cl)cc5)c5c(sc(C)c5C)-n5c(C)nnc54)CC3)cc2)C(C)(C)C)cc1 [Example 27, (2S,4R)-1-[(2S)-2-[2-(3-{3-[4-(1-{2-[(9S)-7-(4-chlorophenyl)-4,5,13-trimethyl-3-thia-1,8,11,12-tetraazatricyclo[8.3.0.0^2,^6]trideca-2(6),4,7,10,12-pentaen-9-yl]acetamido}cyclopropyl)phenoxy]propoxy}propoxy)acetamido]-3,3-dimethylbutanoyl]-4-hydroxy-N-{[4-(4-methyl-1,3-thiazol-5-yl)phenyl]methyl}pyrrolidine-2-carboxamide] | 0.01 to 0.1 µM | 100%
19 | Cc1ncsc1-c1ccc([C@H](CO)NC(=O)[C@@H]2C[C@@H](O)CN2C(=O)[C@@H](NC(=O)CN2CCC(O[C@H]3C[C@H](NC(=O)C[C@@H]4N=C(c5ccc(Cl)cc5)c5c(sc(C)c5C)-n5c(C)nnc54)C3)CC2)C(C)(C)C)cc1 [Example 351, (2S,4R)-1-[(2S)-3,3-dimethyl-2-(2-{4-[(1,3-trans)-3-{2-[(9S)-7-(4-chlorophenyl)-4,5,13-trimethyl-3-thia-1,8,11,12-tetraazatricyclo[8.3.0.0^2,^6]trideca-2(6),4,7,10,12-pentaen-9-yl]acetamido}cyclobutoxy]piperidin-1-yl}acetamido)butanoyl]-4-hydroxy-N-[(1R)-2-hydroxy-1-[4-(4-methyl-1,3-thiazol-5-yl)phenyl]ethyl]pyrrolidine-2-carboxamide] | < 0.01 µM | 100%
20 | Cc1sc2c(c1C)C(c1ccc(Cl)cc1)=N[C@@H](CC(=O)NCCOCCCOCC(=O)N[C@H](C(=O)N1C[C@H](O)C[C@H]1C(=O)NCc1ccc(C#N)cc1)C(C)(C)C)c1nnc(C)n1-2 [Example 75] | 0.1 to 1 µM | 58.5%
21 | Cc1ncsc1-c1ccc([C@H](C)NC(=O)[C@@H]2C[C@@H](O)CN2C(=O)[C@@H](NC(=O)COCCOCCCOc2ccc([C@H](C)NC(=O)CC3N=C(c4ccc(Cl)cc4)c4c(sc(C)c4C)-n4c(C)nnc43)cc2)C(C)(C)C)cc1 (stereo partly shown) [Example 108] | 0.1 to 1 µM | 95.4%
22 | Cc1ncsc1-c1ccc([C@H](C)NC(=O)[C@@H]2C[C@@H](O)CN2C(=O)[C@H](C(C)C)n2cc(-c3ccnc(O[C@H]4C[C@@H](NC(=O)C[C@@H]5N=C(c6ccc(Cl)cc6)c6c(sc(C)c6C)-n6c(C)nnc65)C4)n3)cn2)cc1 [Example 301] | 0.01 to 0.1 µM | 95%
23 | Cc1ncsc1-c1ccc([C@H](C)NC(=O)[C@@H]2C[C@@H](O)CN2C(=O)[C@@H](NC(=O)COCCOCCCOc2ccc([C@H](C)NC(=O)C[C@H]3N=C(c4ccc(Cl)cc4)c4c(sc(C)c4C)-n4c(C)nnc43)cc2)C(C)(C)C)cc1 [Example 109] | > 1 µM | < 5%
